Measured values: PMC6212553, “Baicalein Enhances the Oral Bioavailability and Hepatoprotective Effects of Silybin Through the Inhibition of Efflux Transporters BCRP and MRP2” (Frontiers in Pharmacology, 2018)

Experiments:
[1] = system: CCl4-induced liver injury model; test: CCl4-induced acute liver injury in rats; assay type: in vivo, SD rats; design: Nerosis (histologic score, liver H&E) / Haemorrhage (histologic score, liver H&E) / Inflammation (histologic score, liver H&E) / Steatosis (histologic score, liver H&E): scale not given here
Description: Male SD rats were randomly divided into seven groups: […] (2) Group II, given blank vehicle p.o. for 7 days; (3) Group III, treatment with silybin (100 mg/kg bodyweight, p.o.) for 7 days; […] After 24 h of CCl4 treatment, all rats were sacrificed under ether anesthesia. Blood samples were collected from the abdominal aorta for biochemical estimations. The liver was immediately removed and weighed with a large portion of the liver frozen in liquid nitrogen. The pathological liver changes were examined by hematoxylin and eosin (H&E) staining, which was performed by a pathologist who was blinded to this study. The serum levels of ALT, AST, AKP, and SOD as well as the cytokines TNF- α, IL-6, and IL-1β were detected by the assay kit, according to the manufacturer’s instructions.

[2] = Bidirectional transport of silybin across Caco-2 cell monolayers; assay type: in vitro ADME, Human; conditions: human; Caco-2, silybin 2.5, 5 and 10 μM, with baicalein 5 μM
Description: Human colon epithelial cell line (Caco-2) was purchased from American Type Culture Collection (Manassas, VA, United States) and frozen at -80°C. Wild type MDCK II, MDR1-MDCK II, BCRP-MDCK II, and MRP2-MDCK II cells were kindly supplied by the Netherlands Cancer Institute (Amsterdam, Netherlands). Transport study was carried out with Caco-2 cells, and MDCK II cells were transfected using a previously established method with slight modifications ([Yuan et al., 2017]). The Caco-2 cells were cultured at 37°C/5% CO2 in Dulbecco's modified Eagle's medium (DMEM) supplemented with 10% fetal bovine serum, 1% nonessential amino acids, and 1% penicillin-streptomycin. The Caco-2 cells were seeded onto polyester filter membranes in a 12-well Transwell® plate (Corning Costar Co., NY, United States) with 0.6 × 10^5 cells/cm^2. The monolayer cells were used for transport assays between 21 and 23 days. The MDCKII cells were seeded on transwell plates with a density of 2.0 × 10^5 cells/cm^2 and grown for 4-5 days to form a confluent monolayer. Bidirectional transport assays for Caco-2 and MDCK II cells were performed by adding silybin (10 μM) in assay buffer into either the apical (AP; A-to-B) or basolateral (BL; […] For inhibition studies, Caco-2 or MDCK II cell monolayers in both apical and basolateral chambers were preincubated with the inhibitor for 30 min. The fluorescence intensity of the sample collected from the AP or BL side was immediately detected in a 96-well black plate by the Microplate UV/VIS spectrophotometer (TECAN Infinite […], Männedorf, Switzerland). For liquid chromatography tandem-mass spectrometry (LC-MS/MS) analysis, the sample (100 μl) was mixed with methanol (50 μl) containing internal standard (25 ng/ml) and was stored at -80°C. The formula for calculating apparent permeability coefficient (Papp) values is as follows: (1) […] where dQ/dt (mM/s) represents the rate of permeation of the drug across the cells, C0 (mM) refers to the concentration in the donor compartment at time zero calculated from dosing solution, and A (cm^2) refers to the area of the cell monolayer. Papp (B-A) is the Papp value measured in the B to A direction, and Papp (A-B) is the Papp value measured in the A to B direction. The efflux ratio is given as ER = Papp (B to A)/Papp (A to B).

[3] = design: method as in Wen et al., 2008; conditions: after oral administration; ref Wen et al., 2008; cited from earlier work
[4] = design: method as in Pradhan and Girish, 2006; conditions: doses <10 g/d; ref Pradhan and Girish, 2006; cited from earlier work
[5] = 100 mg/kg p.o. 7 days, single agent, CCl4 on day 7
[6] = silybin 100 mg/kg for 7 consecutive days, P < 0.01

efflux ratio at 180 min [2]: ~2
SMILES: COc1cc(C2Oc3cc([C@H]4Oc5cc(O)cc(O)c5C(=O)[C@@H]4O)ccc3OC2CO)ccc1O (some centres unmarked) [silybin, Silybin]
Haemorrhage (histologic score, liver H&E) [1, 5]: 2.2±0.8
Inflammation (histologic score, liver H&E) [1, 5]: 2.0±0.6
Nerosis (histologic score, liver H&E) [1, 5]: 2.7±0.5
Steatosis (histologic score, liver H&E) [1, 5]: 2.2±0.8
CCl4-induced increase of liver weight and ratio of liver to body weight ([1]; p.o. 7 days before CCl4, p < 0.01): abrogated
CCl4-induced increase in serum IL-1β, IL-6, and TNF-α levels [1, 6]: significantly prevented
CCl4-induced increase in the serum activities of ALT, AST, and AKP [1, 6]: significantly prevented
glucuronide conjugated silybin [3]: 55%
sulfate conjugated silybin [3]: 28%
side effects [4]: no significant side effects
